Broadly, the IC50 is the point on the concentration scale where inhibition reaches its midpoint. A low value points to greater potency in that assay.

Data on five compounds can be found in ChEMBL document CHEMBL1127880, “1H-1,2,4-triazole angiotensin II receptor antagonists: N-phenylpyridinylmethyl and N-pyridinylphenylmethyl analogs of SC-50560” (Bioorg Med Chem Lett, 1994).

Structures are written as SMILES.

For one test, the species on record is Oryctolagus cuniculus. Briefly: Evaluated for antagonism of AII contracted rabbit aortic rings. It is filed as functional. Conditions: Aorta, read-out: pA2 (converted).
A further test addresses T1, Angiotensin II receptor (Rattus norvegicus, UniProt P29089+P25095+P35351).
T1 sequence (P29089 whole entry): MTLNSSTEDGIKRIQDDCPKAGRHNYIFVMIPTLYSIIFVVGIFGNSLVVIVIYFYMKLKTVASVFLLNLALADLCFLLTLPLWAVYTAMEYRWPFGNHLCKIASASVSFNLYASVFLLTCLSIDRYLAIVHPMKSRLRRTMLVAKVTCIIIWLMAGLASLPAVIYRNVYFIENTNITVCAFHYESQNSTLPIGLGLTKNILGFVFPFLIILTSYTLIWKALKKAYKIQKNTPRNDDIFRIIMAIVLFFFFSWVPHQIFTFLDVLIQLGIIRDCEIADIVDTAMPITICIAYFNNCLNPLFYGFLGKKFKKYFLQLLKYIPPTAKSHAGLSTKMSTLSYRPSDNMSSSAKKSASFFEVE
T1 sequence (P25095 whole entry): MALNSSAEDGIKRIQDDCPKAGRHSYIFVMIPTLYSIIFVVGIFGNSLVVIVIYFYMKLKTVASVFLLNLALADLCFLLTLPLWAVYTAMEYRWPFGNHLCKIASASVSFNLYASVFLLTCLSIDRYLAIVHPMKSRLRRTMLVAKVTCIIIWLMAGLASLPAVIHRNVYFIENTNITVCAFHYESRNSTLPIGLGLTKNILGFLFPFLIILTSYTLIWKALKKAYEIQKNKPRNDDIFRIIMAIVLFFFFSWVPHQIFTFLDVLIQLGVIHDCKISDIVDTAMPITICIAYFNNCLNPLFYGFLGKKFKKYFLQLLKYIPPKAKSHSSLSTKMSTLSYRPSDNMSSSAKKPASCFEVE
T1 sequence (P35351 whole entry): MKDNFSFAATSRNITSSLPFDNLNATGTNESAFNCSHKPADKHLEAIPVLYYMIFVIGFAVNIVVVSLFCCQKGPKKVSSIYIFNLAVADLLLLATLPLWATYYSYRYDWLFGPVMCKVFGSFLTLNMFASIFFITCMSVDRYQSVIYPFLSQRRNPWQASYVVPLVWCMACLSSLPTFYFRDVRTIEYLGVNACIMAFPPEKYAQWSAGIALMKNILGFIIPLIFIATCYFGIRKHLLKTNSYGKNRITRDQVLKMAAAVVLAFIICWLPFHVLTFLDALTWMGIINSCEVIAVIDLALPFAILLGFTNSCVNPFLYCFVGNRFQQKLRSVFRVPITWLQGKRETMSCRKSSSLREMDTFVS
As to the kind of experiment: Tested in vitro for inhibition of [125I]AII to rat uterine membranes. The class given is cell membranes, Membrane.

Consider `CCCCc1nc(CCCC)n(Cc2ccc(-c3ccccc3-c3nn[nH]n3)cn2)n1`, for which, in the test listed under Oryctolagus cuniculus, the Kb is 10 nM.
As to `CCCCc1nc(CCCC)n(Cc2ccc(-c3ncccc3-c3nn[nH]n3)cc2)n1`, in the test filed under Oryctolagus cuniculus, the Kb is 158 nM. The compound further yielded a concentration for half-maximal inhibition (IC50) against Angiotensin II receptor of 98 nM.
For `CCCCc1nc(CCCC)n(Cc2ccc(-c3cnccc3-c3nn[nH]n3)cc2)n1`, in that order: 63.1 nM and 150 nM.
On Angiotensin II receptor, `CCCCc1nc(CCCC)n(Cc2ccc(-c3ccncc3-c3nn[nH]n3)cc2)n1` displayed an IC50 of 250 nM.
For the compound `CCCCc1nc(CCCC)n(Cc2ccc(-c3cccnc3-c3nn[nH]n3)cc2)n1`, the Kb in the test listed under Oryctolagus cuniculus is 126 nM. Besides, the IC50 against Angiotensin II receptor is listed as 110 nM.
